The values below come from article PMC12703428, “Development of Granzyme A Turn‐ON Fluorescent Activity‐Based Probes” (Chembiochem, 2025).

“Also recorded” adds a separate entry of the source. Square brackets hold non-standard residues; d marks the D form. Ends that are not written are not given here. Oic = O=C(O)[C@@H]1C[C@@H]2CCCC[C@@H]2N1; Tic = O=C(O)[C@@H]1Cc2ccccc2CN1

One series addresses T1, GzmK (Homo sapiens, UniProt P49863).
T1 sequence (P49863 27-264): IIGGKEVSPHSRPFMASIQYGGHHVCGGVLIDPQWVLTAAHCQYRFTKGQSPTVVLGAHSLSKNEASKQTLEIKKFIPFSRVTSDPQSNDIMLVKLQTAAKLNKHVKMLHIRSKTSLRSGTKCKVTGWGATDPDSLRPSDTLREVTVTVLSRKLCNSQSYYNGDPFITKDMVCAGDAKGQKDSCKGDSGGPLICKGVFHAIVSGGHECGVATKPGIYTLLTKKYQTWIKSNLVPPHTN
Description: Cross-reactivity labeling, GzmK. The class given is biochemical. The note with it: GzmK 100 nM, probe 10-100 nM, 2 h, 37 °C, in-gel fluorescence. On the procedure: Protease (100 nM) HNE PR3 GzmK GzmA
Protease (100 nM) GzmA GzmK
Supplementary Figure 2. Cross-reactivity of probes. (A) Labeling of GzmA, GzmK, PR3, and HNE
(100 nM, 2 h, 37 °C) by 100 nM of 5 and 6. (B) Labeling of GzmA and GzmK (100 nM, 2 h, 37 °C) by
100 nM of 3 – 6. (C) Concentration-dependent labeling of GzmA and GzmK (100 nM, 2 h, 37 °C) by 5 and
6. Protein samples were analyzed by SDS-PAGE and in-gel fluorescence scanning for Cy5 signal.
Protein loading was confirmed by SYPRO Ruby staining. […]

The target of series [1] is T2, GzmA in intact NK‐92 cells (Homo sapiens, UniProt P12544).
T2 construct: host or cells: NK-92
T2 sequence (P12544 29-262): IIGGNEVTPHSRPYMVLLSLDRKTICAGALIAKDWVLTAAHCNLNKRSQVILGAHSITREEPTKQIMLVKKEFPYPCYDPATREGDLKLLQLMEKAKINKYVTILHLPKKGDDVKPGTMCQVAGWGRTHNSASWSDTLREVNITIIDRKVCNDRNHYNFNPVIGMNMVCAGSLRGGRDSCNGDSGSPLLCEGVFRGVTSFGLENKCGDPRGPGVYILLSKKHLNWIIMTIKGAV
In words: Labeling of GzmA in intact NK-92 cells (in-gel fluorescence). The class given is cell-based. The note with it: 2 h, 37 °C; for Labeling of GzmA in intact NK-92 cells: 1x10^6 NK-92 cells, lysis then in-gel fluorescence and GzmA western blot; for Cell permeability / cellular uptake: intact NK-92 cells, judged from labeling in intact cells. On the procedure:
Figure 4 Characterization of qABPs in native proteomes. A) Labeling of GzmA by 5 and 6 in lysates of various cell lines (1 h, 37 °C). B) Stability of 5 and 6 in buffer and cell media (11 h, 37 °C). The hydrolysis of probes was measured by monitoring the production of Cy5 fluorescence signal over time. […] C) Labeling of GzmA by probes 3 –6 in NK‐92 cells (2 h, 37 °C). D) Flow cytometry analysis of protein labeling in NK‐92 cells by 3 –5. […] E) Flow cytometry analysis of concentration‐dependent GzmA labeling in NK‐92 cells and S/N of 5 (5 μM, 2 h, 37 °C). […] F) Flow cytometry analysis of protein labeling by 5 in MDA‐MB‐231 cells co‐cultured with NK‐92 cells (see Supporting Information for conditions). […] TEXT PRINTED IN THE PICTURE: (E) qABP 5: S/N = 4 […]
Final reaction volume was 20 µL. […]
Conditions for Figure 4C: Various concentrations of probes 3-6 were incubated with 1x10^6 NK-92 cells for 2 h at 37 °C in a humidified incubator. Cells were centrifuged, washed with PBS (x2) and lysed with ~40 µL of ice-cold RIPA buffer. Lysates were collected, protein concentration was measured with PIERCE BCA protein assay and samples were analyzed with in-gel fluorescence and GzmA western blotting.
D. Flow cytometry analysis […]
Conditions for Figure 4F: In a 6-well cell culture plate, 5x10^5 MDA-MB-231 cells were seeded and allowed to attach overnight. After confirming cell attachment under the microscope, media were removed and fresh media containing 2x10^6 NK-92 cells (or NK-92 culture media alone for control) were added along with simultaneous addition of qABP 5 (5 µM). Cells were co-cultured for the indicated times at 37 °C under 5% CO2 in a humidified atmosphere. […]
E. Synthesis of compounds
1H, 13C and 31P spectra were acquired on a 500 MHz NMR in CDCl3 or CD3OD at 25 °C. The 1H chemical shifts are given in parts per million (δ) with respect to an internal tetramethylsilane (TMS, δ 0.00 ppm) standard. NMR data are reported in the following format: chemical shifts (multiplicity (s = singlet, d = doublet, t = triplet, m = multiplet), coupling constants [Hz], integration). LCMS data were acquired on Agilent 1200 series LC/MS or Shimadzu Prominence-i LC-2030s instrument, whereas HRMS data were obtained on an Agilent Q-TOF LC/MS/MS instrument. All compounds are >95% pure by HPLC analysis.

Regarding IGNR [compound 5], the “Labeling of GzmK (cross-reactivity)” value on GzmK is “labeling was significantly weaker than for GzmA and required considerably higher probe concentrations”. In series [1], the “Labeling of GzmA in intact NK-92 cells” value is “effectively labeled active GzmA in intact cells” and the “Cell permeability / cellular uptake” value is on record as “excellent cellular uptake”.

In the case of [Tic]G[Oic]R [compound 6], the “Labeling of GzmK (cross-reactivity)” value on GzmK is “labeling was significantly weaker than for GzmA and required considerably higher probe concentrations”. In series [1], the “Labeling of GzmA in intact NK-92 cells” value is given as “poor labeling” and the “Cell permeability / cellular uptake” value was “limited cell permeability; also recorded: cell impermeable”.
